What is called IC50 is the midpoint of a concentration-inhibition curve.

Where “and” joins values, the source holds several entries; their conditions need not be identical. Identical values can stand only once.

This passage reports IC50 results from patent US9844542B2, “Substituted imidazopyridine and triazolopyridine compounds as negative allosteric modulators of mGluR5” (Vanderbilt University, priority 2013, dated 2017).

The target in the assay is T1, rat mGluR5 (Rattus norvegicus, UniProt P31424).
T1 construct: expressed in transfected cells
T1 sequence (P31424 21-1171 isoform P31424-2 limits assumed): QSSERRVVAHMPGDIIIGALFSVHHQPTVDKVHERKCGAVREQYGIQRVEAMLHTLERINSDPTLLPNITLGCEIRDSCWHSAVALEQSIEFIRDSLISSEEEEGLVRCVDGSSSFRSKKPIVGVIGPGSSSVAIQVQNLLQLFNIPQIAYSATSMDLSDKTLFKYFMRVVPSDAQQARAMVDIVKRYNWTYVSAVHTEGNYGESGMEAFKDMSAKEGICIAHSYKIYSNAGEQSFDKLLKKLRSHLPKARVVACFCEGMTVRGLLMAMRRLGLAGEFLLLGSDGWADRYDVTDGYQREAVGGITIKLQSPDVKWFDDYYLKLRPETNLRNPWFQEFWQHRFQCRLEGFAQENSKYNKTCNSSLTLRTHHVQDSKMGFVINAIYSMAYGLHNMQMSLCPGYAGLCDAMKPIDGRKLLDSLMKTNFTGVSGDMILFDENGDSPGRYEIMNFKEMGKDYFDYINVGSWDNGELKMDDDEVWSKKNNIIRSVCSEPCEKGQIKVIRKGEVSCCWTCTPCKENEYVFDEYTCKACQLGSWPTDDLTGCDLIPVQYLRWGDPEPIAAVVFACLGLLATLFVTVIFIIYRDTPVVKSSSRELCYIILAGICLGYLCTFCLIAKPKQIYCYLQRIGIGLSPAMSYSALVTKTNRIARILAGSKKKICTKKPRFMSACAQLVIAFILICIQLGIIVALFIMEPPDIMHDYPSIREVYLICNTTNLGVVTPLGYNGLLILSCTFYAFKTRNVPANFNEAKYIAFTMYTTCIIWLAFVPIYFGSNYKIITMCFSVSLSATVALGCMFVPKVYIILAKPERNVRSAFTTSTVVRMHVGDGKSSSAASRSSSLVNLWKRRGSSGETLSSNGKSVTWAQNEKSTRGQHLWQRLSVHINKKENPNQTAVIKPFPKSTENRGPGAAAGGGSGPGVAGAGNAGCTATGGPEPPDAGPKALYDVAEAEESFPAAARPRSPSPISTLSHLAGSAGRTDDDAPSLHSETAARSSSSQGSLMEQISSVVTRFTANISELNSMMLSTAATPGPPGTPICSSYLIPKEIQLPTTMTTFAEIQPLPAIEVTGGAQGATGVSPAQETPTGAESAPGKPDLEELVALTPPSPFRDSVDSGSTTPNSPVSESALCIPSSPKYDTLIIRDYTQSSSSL
In words: mGluR5 calcium mobilization assay (FDSS, Fluo-4) in HEK 293A cells stably expressing rat mGluR5. Particulars: HEK cells transfected with rat mGluR5; antagonism of glutamate EC80 response; ± = standard error of at least three experiments. Type of assay: cell-based. The protocol: Human embryonic kidney (HEK) cells transfected with rat or human mGluR5 were plated in clear bottom assay plates for assay in a Functional Drug Screening System (FDSS). The cells were loaded with a Ca^2+-sensitive fluorescent dye (e.g., Fluo-4), and the plates were washed and placed in the FDSS instrument. Test compound was applied to cells 3 seconds after baseline readings were taken. Cells were incubated with the test compounds for 140 seconds and then stimulated with an EC20 concentration of an mGluR5 agonist (e.g., glutamate, 3,5-dihydroxyphenylglycine, or quisqualate); 60-80 seconds later an EC80 concentration of agonist was added and readings taken for an additional 40 seconds. Data were collected at 1 Hz. […] Concentration response curves were generated using a four parameter logistical equation.
The above described assay was operated in two modes. In the first mode (utilizing a triple add protocol), a range of concentrations of the present compounds were added to cells, followed by two single fixed concentrations of agonist (EC20 followed by EC80). If a compound acted as a potentiator, an EC50 value for potentiation of the EC20 response and a maximum extent of potentiation by the compound at this concentration of agonist was determined by non-linear curve fitting. If a compound acted as an antagonist, an IC50 value for antagonism of the EC80 response and a maximum extent of antagonism by the compound at this concentration of agonist was determined by non-linear curve fitting. In the second mode (utilizing a double add protocol), several fixed concentrations of the present compounds were added to various wells on a plate, followed by a range of concentrations of agonist for each concentration of present compound; the EC50 values for the agonist at each concentration of compound were determined by nonlinear curve fitting. A decrease in the EC50 value of the agonist with increasing concentrations of the present compounds (a leftward shift of the agonist concentration-response curve) is an indication of the degree of mGluR5 positive allosteric modulation at a given concentration of the present compound. An increase in the EC50 value of the agonist with increasing concentrations of the present compounds (a rightward shift of the agonist concentration response curve) is an indication of the degree of mGluR5 antagonism at a given concentration of the present compound. The second mode also indicates whether the present compounds also affect the maximum response to mGluR5 to agonists.
The mGluR5 activity was determined using the calcium mobilization assays in human embryonic kidney cells as described herein below, wherein the human embryonic kidney cells were transfected with rat mGluR5. The mGluR5 activity data for some compounds are shown as the average of at least three experiments with the standard error in these cases. If no error is indicated for the mGluR5 activity, the values given represent the results from a single experiment or the average of two experiments. The compounds in Table 1 were synthesized with methods identical or analogous to those shown herein. The requisite starting materials were commercially available, described in the literature, or readily synthesized by one skilled in the art of organic synthesis.
GluMax is the amplitude of response in the presence of 30 μM test compound as a percentage of maximal response (100 μM glutamate). Partial antagonists display concentration-response curves (CRCs) that plateau above 10%.
The preparation of rat mGluR5 stable cell-lines is as previously described (e.g. see Romano et al. J Biol. Chem. 1996 Nov. 8; 271(45):28612-6).
On the technique in general: Calcium flux is commonly read through the fluorescence of an indicator in the cells.
On to `CCc1cccc(NC(=O)c2cc(Oc3cncc(F)c3)cn3ccnc23)n1`, for which the IC50 amounted to 248 nM. As for `Cc1ncc(Oc2cc(C(=O)Nc3cccc(F)n3)c3nccn3c2)cn1`, the figure is 5780 nM; as for `O=C(Nc1nc(CF)cs1)c1cc(Oc2cncnc2)cn2ncnc12`, 244 nM; as for `COc1cncc(Oc2cc(C(=O)Nc3ccc(F)c(C)n3)c3nncn3c2)c1`, 10300 nM. The result for `COc1ccc(NC(=O)c2cc(Oc3cnc(C)nc3)cn3cnnc23)nc1` reads above 10000 nM; that for `COc1cncc(Oc2cc(C(=O)Nc3ccccn3)c3ncnn3c2)c1`, 99 nM. The result for `COc1cccc(NC(=O)c2cc(Oc3cncc(F)c3)cn3ncnc23)n1` reads 70 nM; that for `[2H]c1nc(NC(=O)c2cc(Oc3cncc(F)c3)cn3cnnc23)c([2H])c([2H])c1[2H]`, 45 nM; that for `Cc1ccc(NC(=O)c2cc(Oc3cncc(Cl)c3)cn3ncnc23)nc1`, 135 nM. Turning to `CCc1cccc(NC(=O)c2cc(Oc3cncc(Cl)c3)cn3ncnc23)n1`, the IC50 is 264 nM.

As to `COc1cncc(Oc2cc(C(=O)Nc3ccc(F)c(C)n3)c3ncnn3c2)c1`, the IC50 was found to be 1070 nM. With `O=C(Nc1ccccn1)c1cc(Oc2cncnc2)cn2ncnc12`, the IC50 came to 219 nM. As for `COc1cncc(Oc2cc(C(=O)Nc3ccccn3)c3nccn3c2)c1`, the figure is 40 nM; as for `Cc1cccc(NC(=O)c2cc(Oc3cccnc3)cn3ncnc23)n1`, 41 nM.

As for `COc1ccc(NC(=O)c2cc(Oc3cncc(Cl)c3)cn3cnnc23)nc1`, the IC50 came to 624 nM. For `O=C(Nc1ccc(F)cn1)c1cc(Oc2cncnc2)cn2cnnc12`, the IC50 is 162 nM.

As for `O=C(Nc1ccc(F)cn1)c1cc(Oc2cc(F)cnc2F)cn2ncnc12`, the IC50 was determined as 138 nM. The result for `Cc1ccc(NC(=O)c2cc(Oc3cnc(C)nc3)cn3cnnc23)nc1` reads above 10000 nM; that for `Cc1cccc(NC(=O)c2cc(Oc3cncnc3)cn3ncnc23)n1`, 312 nM; that for `Cc1cccc(NC(=O)c2cc(Oc3cnc(F)c(F)c3)cn3ncnc23)n1`, 128 nM. The result for `Cc1nc2c(C(=O)Nc3ccc(F)cn3)cc(Oc3cncc(F)c3)cn2n1` reads 310 nM; that for `Cc1csc(NC(=O)c2cc(Oc3cncc(C#N)c3)cn3ccnc23)n1`, 127 nM; that for `Cc1csc(NC(=O)c2cc(Oc3cncc(Cl)c3)cn3cnnc23)n1`, 666 nM. As for `O=C(Nc1cccc(F)n1)c1cc(Oc2cncc(F)c2)cn2cnnc12`, the figure is 50 nM; as for `CCc1cccc(NC(=O)c2cc(Oc3cnc(F)c(F)c3)cn3ncnc23)n1`, 559 nM; as for `O=C(Nc1ccc(F)cn1)c1cc(Oc2cncc(F)c2F)cn2ncnc12`, 41 ± 2 nM. As to `COc1ccc(NC(=O)c2cc(Oc3cccnc3)cn3ncnc23)nc1`, the IC50 turned out to be 142 nM. On to `O=C(Nc1ccc(F)cn1)c1cc(Oc2cccnc2)cn2ncnc12`, for which the IC50 amounted to 25 nM.

Regarding `[2H]c1nc(NC(=O)c2cc(Oc3cncc(OC)c3)cn3ccnc23)c([2H])c([2H])c1[2H]`, the IC50 amounted to 46 nM.

Turning to `COc1cncc(Oc2cc(C(=O)Nc3cccc(OC)n3)c3ncnn3c2)c1` [drawing 289], the half-maximal inhibitory concentration (IC50) stood at 416 nM. Turning to `N#Cc1cncc(Oc2cc(C(=O)Nc3ccc(F)cn3)c3nncn3c2)c1`, the half-inhibitory concentration (IC50) worked out at 1430 nM. As for `Cc1csc(NC(=O)c2cc(Oc3cnc(C)nc3)cn3ccnc23)n1`, the 50% inhibitory concentration (IC50) was 1090 nM. `O=C(Nc1nc(C(F)(F)F)cs1)c1cc(Oc2cncnc2)cn2ncnc12`: the IC50 stood at 535 nM.

As for `Cc1cccc(NC(=O)c2cc(Oc3cnc(C)nc3)cn3ccnc23)n1`, the IC50 is 3620 nM. The result for `Cc1csc(NC(=O)c2cc(Oc3cccnc3)cn3ncnc23)n1` reads 43 nM. The result for `CCc1cccc(NC(=O)c2cc(Oc3cncc(C)c3)cn3ncnc23)n1` reads 483 nM. As for `COc1ccc(NC(=O)c2cc(Oc3cncc(F)c3)cn3cnnc23)nc1`, the figure is 82 nM; as for `Cc1ccc(NC(=O)c2cc(Oc3cccnc3)cn3ncnc23)nc1`, 50 nM. On to `O=C(Nc1cccc(F)n1)c1cc(Oc2cncnc2)cn2cnnc12`, for which the IC50 worked out at 232 nM. On to `COc1cncc(Oc2cc(C(=O)Nc3cccc(C)n3)c3ncnn3c2)c1`, for which the IC50 stood at 175 nM.

Take `COc1ccc(NC(=O)c2cc(Oc3cncc(C)c3)cn3ncnc23)nc1`: the IC50 was 275 nM. As for `COc1cncc(Oc2cc(C(=O)Nc3cccc(OC)n3)c3nccn3c2)c1`, the figure is 268 nM; as for `O=C(Nc1cccc(F)n1)c1cc(Oc2cncnc2)cn2ncnc12`, 117 nM; as for `CCc1cccc(NC(=O)c2cc(Oc3cncnc3)cn3ncnc23)n1`, 306 nM. The result for `Cc1cncc(Oc2cc(C(=O)Nc3ccc(F)cn3)c3ncnn3c2)c1` reads 94 nM; that for `O=C(Nc1cccc(F)n1)c1cc(Oc2cncc(F)c2)cn2ncnc12`, 31 nM; that for `Cc1csc(NC(=O)c2cc(Oc3cncc(F)c3F)cn3ncnc23)n1`, 83 nM. As for `Cc1nc2c(C(=O)Nc3ccccn3)cc(Oc3cncc(F)c3)cn2n1`, the figure is 97 nM; as for `O=C(Nc1ccc(F)cn1)c1cc(Oc2cnc(F)c(F)c2)cn2ncnc12`, 59 ± 11 nM; as for `COc1cncc(Oc2cc(C(=O)Nc3ccc(C)cn3)c3ncnn3c2)c1`, 218 nM. Consider `O=C(Nc1ccc(F)cn1)c1cc(Oc2cncc(Cl)c2)cn2ncnc12`, for which the IC50 amounted to 39 nM. The result for `[2H]c1nc(NC(=O)c2cc(Oc3cncc(OC)c3)cn3cnnc23)c([2H])c([2H])c1[2H]` reads 1230 nM; that for `O=C(Nc1ccccn1)c1cc(Oc2cnc(F)c(F)c2)cn2ncnc12`, 52 nM; that for `COc1cccc(NC(=O)c2cc(Oc3cncc(C)c3)cn3ncnc23)n1`, 260 nM. The result for `COc1cccc(NC(=O)c2cc(Oc3cnc(C)nc3)cn3cnnc23)n1` reads above 10000 nM. Consider `Cc1cncc(Oc2cc(C(=O)Nc3nc(C)cs3)c3ncnn3c2)c1`, for which the IC50 was found to be 128 nM.

For the molecule `O=C(Nc1ccccn1)c1cc(Oc2cncc(F)c2)cn2ccnc12`, the IC50 is 16 nM. `[2H]c1nc(NC(=O)c2cc(Oc3cnc(C)nc3)cn3cnnc23)c([2H])c([2H])c1[2H]`: the IC50 was 7970 nM. With `O=C(Nc1ccc(F)cn1)c1cc(Oc2cncc(Cl)c2)cn2cnnc12`, the IC50 worked out at 285 nM. Take `O=C(Nc1cccc(F)n1)c1cc(Oc2cncc(F)c2)cn2ccnc12`: the IC50 worked out at 42 nM. The result for `Cc1csc(NC(=O)c2cc(Oc3cncc(Cl)c3)cn3ccnc23)n1` reads 182 nM. For `Cc1nc(NC(=O)c2cc(Oc3cncnc3)cn3ncnc23)ccc1F`, the IC50 amounted to 296 nM. As for `CCc1cccc(NC(=O)c2cc(Oc3cncc(F)c3)cn3ncnc23)n1`, the IC50 amounted to 101 nM. As for `[2H]c1nc(NC(=O)c2cc(Oc3cncc(F)c3)cn3ccnc23)c([2H])c([2H])c1[2H]`, the figure is 15 nM.

Regarding `COc1cncc(Oc2cc(C(=O)Nc3cccc(OC)n3)c3ncnn3c2)c1` [drawing 305], the IC50 stood at 334 nM. For the molecule `Cc1csc(NC(=O)c2cc(Oc3cncc(F)c3)cn3nc(C)nc23)n1`, the IC50 worked out at 135 nM. On to `Cc1ncc(Oc2cc(C(=O)Nc3ccccn3)c3nncn3c2)cn1`, for which the IC50 stood at 9410 nM. Consider `[2H]c1nc(NC(=O)c2cc(Oc3cncc(F)c3)cn3ncnc23)c([2H])c([2H])c1[2H]`, for which the 50% inhibitory concentration (IC50) came out at 43 nM.

Consider `Cc1ccc(NC(=O)c2cc(Oc3cncnc3)cn3ncnc23)nc1`, for which the IC50 came out at 138 nM. The result for `Cc1nnc2c(C(=O)Nc3ccccn3)cc(Oc3cncc(F)c3)cn12` reads 172 nM; that for `O=C(Nc1cccc(F)n1)c1cc(Oc2cccnc2)cn2ncnc12`, 32 nM. As for `O=C(Nc1ccccn1)c1cc(Oc2cncc(Cl)c2)cn2ncnc12`, the figure is 32 nM; as for `Cc1ccc(NC(=O)c2cc(Oc3cncc(F)c3)cn3c(C)nnc23)nc1`, 1310 nM; as for `Cc1csc(NC(=O)c2cc(Oc3cncc(F)c3)cn3ncnc23)n1`, 49 nM. With `O=C(Nc1ccc(F)cn1)c1cc(Oc2cncnc2)cn2ncnc12` [drawing 195], the half-inhibitory concentration (IC50) was 100 nM and 75 nM.
